Like-named read-outs stand apart in the source and are kept apart here.
Key:
Assay in all cases: in vitro DNA strand exchange assay with recombinant hRAD51
Format in all cases: biochemical
[1] = target: T1, hRAD51 (Homo sapiens, UniProt Q06609)
T1 sequence (Q06609 2-339): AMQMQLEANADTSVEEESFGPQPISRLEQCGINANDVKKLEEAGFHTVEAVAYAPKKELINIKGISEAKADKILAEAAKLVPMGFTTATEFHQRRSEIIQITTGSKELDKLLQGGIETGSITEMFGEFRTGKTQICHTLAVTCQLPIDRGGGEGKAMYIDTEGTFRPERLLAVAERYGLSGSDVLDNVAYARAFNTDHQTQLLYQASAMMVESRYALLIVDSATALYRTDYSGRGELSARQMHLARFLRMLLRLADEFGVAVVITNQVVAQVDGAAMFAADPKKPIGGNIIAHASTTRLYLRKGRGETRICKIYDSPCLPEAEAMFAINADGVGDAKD

[2] = target: T1, hRAD51; remark: listed apart in the source
[3] = target: T1, hRAD51; remark: listed apart in the source

| IC50 [3] [µM] | Structure (SMILES) | other results |
| --- | --- | --- |
| – | COc1cc(/C=C/c2ccc(O)cc2)cc(OC)c1 [P-ter, E-pterostilbene] | EC50 [1]: 19.2 ± 2.4 µM |
| – | O=C(Nc1ccc(Br)cc1)c1ccc(Br)c(S(=O)(=O)NCc2ccccc2)c1 [RS-1] | EC50 [2]: 25 ± 3 µM |
| 50 ± 5 | O=C1C(Cl)=C(N2CCOCC2)C(=O)N1c1ccc(Cl)c(Cl)c1 [RI-1] | – |
| 90 ± 2.5 | O=S(=O)(O)c1cc(N=C=S)ccc1/C=C/c1ccc(N=C=S)cc1S(=O)(=O)O [DIDS] | – |
